US12501900B2, “Heterocyclyl pyridazine as fungicidal compounds” (Bayer Aktiengesellschaft, priority 2018, dated 2025)

Key:
[1] = LogP determination; assay type: physicochemical; conditions: reversed phase HPLC column; method [a]
[2] = test system: Alternaria alternata; experiment: Alternaria alternata in vitro cell test; assay type: cell-based; conditions: 120 h, 20 ppm of active ingredient, liquid culture, 5 days incubation, read-out: efficacy (inhibition of fungal growth)
Experimental: (§1) Example: Alternaria alternata In Vitro Cell Test • Solvent: DMSO • Culture medium: 14.6 g anhydrous D-glucose (VWR), 7.1 g Mycological Peptone (Oxoid), 1.4 g granulated Yeast Extract (Merck), QSP 1 liter • Inoculum: spores suspension Fungicides were solubilized in DMSO and the solution used to prepare the required range of concentrations. The final concentration of DMSO used in the assay was ≤1%. A spore suspension of A. alternata was prepared and diluted to the desired spore density. Fungicides were evaluated for their ability to inhibit spore germination and mycelium growth in liquid culture assay. The compounds were added in the desired concentration to the culture medium with spores. After 5 days incubation, fungi-toxicity of compounds was determined by spectrometric measurement of mycelium growth. Inhibition of fungal growth was determined by comparing the absorbance values in wells containing the fungicides with the absorbance in control wells without fungicides.

[3] = test system: Septoria tritici; experiment: In vivo preventive test on Septoria tritici (leaf spot on wheat); conditions: Zymoseptoria tritici, in Triticum aestivum; 500 ppm of active ingredient; preventive spray on wheat; evaluated 19 days after inoculation; read-out: efficacy
Experimental: Example: In Vivo Preventive Test on Septoria tritici (Leaf Spot on Wheat)
(§2) • Solvent: 5% by volume of Dimethyl sulfoxide • 10% by volume of Acetone • Emulsifier: 1 μl of Tween® 80 per mg of active ingredient
(§3) The active ingredients were made soluble and homogenized in a mixture of Dimethyl sulfoxide/Acetone//Tween®80 and then diluted in water to the desired concentration.
The young plants of wheat were treated by spraying the active ingredient prepared as described above. Control plants were treated only with an aqueous solution of Acetone/Dimethyl sulfoxide/Tween®80.
After 24 hours, the plants were contaminated by spraying the leaves with an aqueous suspension of Septoria tritici spores. The contaminated wheat plants were incubated for 72 hours at 17° C. and at 100% relative humidity and then for 15 days at 20° C. and at 90% relative humidity.
The test was evaluated 19 days after the inoculation. 0% means an efficacy which corresponds to that of the control plants while an efficacy of 100% means that no disease was observed.

[4] = test system: Pyrenophora teres; experiment: In vivo preventive test on Pyrenophora teres (net blotch on barley); conditions: 240 h, 500 ppm of active ingredient, preventive spray on barley, evaluated 10 days after inoculation, read-out: efficacy
Experimental: Example: In Vivo Preventive Test on Pyrenophora teres (Net Blotch on Barley)
as §2, §3
The young plants of barley were treated by spraying the active ingredient prepared as described above. Control plants were treated only with an aqueous solution of Acetone/Dimethyl sulfoxide/Tween®80.
After 24 hours, the plants were contaminated by spraying the leaves with an aqueous suspension of Pyrenophora teres spores. The contaminated barley plants were incubated for 48 hours at 20° C. and at 100% relative humidity and then for 8 days at 20° C. and at 70-80% relative humidity.
The test was evaluated 10 days after the inoculation. 0% means an efficacy which corresponds to that of the control plants while an efficacy of 100% means that no disease was observed.

[5] = test system: Botrytis cinerea; experiment: In vivo preventive test on Botrytis cinerea (grey mould); conditions: 500 ppm of active ingredient, preventive spray on gherkin or cabbage, evaluated 4 to 5 days after inoculation, read-out: efficacy
Experimental: Example: In Vivo Preventive Test on Botrytis cinerea (Grey Mould)
as §2, §3
The young plants of gherkin or cabbage were treated by spraying the active ingredient prepared as described above. Control plants were treated only with an aqueous solution of Acetone/Dimethyl sulfoxide/Tween® 80.
After 24 hours, the plants were contaminated by spraying the leaves with an aqueous suspension of Botrytis cinerea spores. The contaminated gherkin plants were incubated for 4 to 5 days at 17° C. and at 90% relative humidity. The contaminated cabbage plants were incubated for 4 to 5 days at 20° C. and at 100% relative humidity.
The test was evaluated 4 to 5 days after the inoculation. 0% means an efficacy which corresponds to that of the control plants while an efficacy of 100% means that no disease was observed.

[6] = test system: Alternaria brassicae; experiment: In vivo preventive test on Alternaria brassicae (leaf spot on radish or cabbage); conditions: 144 h, 500 ppm of active ingredient, preventive spray on radish or cabbage, evaluated 6 days after inoculation, read-out: efficacy
Experimental: Example: In Vivo Preventive Test on Alternaria brassicae (Leaf Spot on Radish or Cabbage)
as §2, §3
The young plants of radish or cabbage were treated by spraying the active ingredient prepared as described above. Control plants were treated only with an aqueous solution of Acetone/Dimethyl sulfoxide/Tween® 80.
After 24 hours, the plants were contaminated by spraying the leaves with an aqueous suspension of Alternaria brassicae spores. The contaminated radish or cabbage plants were incubated for 6 days at 20° C. and at 100% relative humidity.
The test was evaluated 6 days after the inoculation. 0% means an efficacy which corresponds to that of the control plants while an efficacy of 100% means that no disease was observed.

[7] = test system: Septoria tritici; experiment: Septoria tritici in vitro cell test; assay type: cell-based; conditions: Zymoseptoria tritici, 168 h; 20 ppm of active ingredient; liquid culture, 7 days incubation; read-out: efficacy (inhibition of fungal growth)
Experimental: as §1, with “Example: Septoria tritici” for “Example: Alternaria alternata”, “g Bacteriological” for “g Mycological”, “(Oxoid), •” for “(Oxoid),”, “Inoculum: spore” for “Inoculum: spores”, “of Septoria tritici” for “of A. alternata”, “After 7” for “After 5”

[8] = test system: Colletotrichum lindemuthianum; experiment: Colletotrichum lindemuthianum in vitro cell test; assay type: cell-based; conditions: 144 h, 20 ppm of active ingredient, liquid culture, 6 days incubation, read-out: efficacy (inhibition of fungal growth)
Experimental: as §1, with “Example: Colletotrichum lindemuthianum” for “Example: Alternaria alternata”, “of C. lindemuthianum” for “of A. alternata”, “inhibit spores” for “inhibit spore”, “After 6” for “After 5”

[9] = test system: Colletotrichum lindemuthianum; experiment: In vivo preventive test on Colletotrichum lindemuthianum (leaf spot on bean); conditions: 168 h, 500 ppm of active ingredient, preventive spray on bean, evaluated 7 days after inoculation, read-out: efficacy
Experimental: Example: In Vivo Preventive Test on Colletotrichum lindemuthianum (Leaf Spot on Bean)
as §2, §3
The young plants of bean were treated by spraying the active ingredient prepared as described above. Control plants were treated only with an aqueous solution of Acetone/Dimethyl sulfoxide/Tween® 80.
After 24 hours, the plants were contaminated by spraying the leaves with an aqueous suspension of Colletotrichum lindemuthianum spores. The contaminated bean plants were incubated for 24 hours at 20° C. and at 100% relative humidity and then for 6 days at 20° C. and at 90% relative humidity.
The test was evaluated 7 days after the inoculation. 0% means an efficacy which corresponds to that of the control plants while an efficacy of 100% means that no disease was observed.

[10] = test system: Sphaerotheca fuliginea; experiment: In vivo preventive test on Sphaerotheca fuliginea (powdery mildew on cucurbits); conditions: Podosphaera fuliginea, 192 h; 500 ppm of active ingredient; preventive spray on gherkin; evaluated 8 days after inoculation; read-out: efficacy
Experimental: Example: In Vivo Preventive Test on Sphaerotheca fuliginea (Powdery Mildew on Cucurbits)
as §2, §3
The young plants of gherkin were treated by spraying the active ingredient prepared as described above. Control plants were treated only with an aqueous solution of Acetone/Dimethyl sulfoxide/Tween® 80.
After 24 hours, the plants were contaminated by spraying the leaves with an aqueous suspension of Sphaerotheca fuliginea spores. The contaminated gherkin plants were incubated for 8 days at 20° C. and at 70-80% relative humidity.
The test was evaluated 8 days after the inoculation. 0% means an efficacy which corresponds to that of the control plants while an efficacy of 100% means that no disease was observed.

Cc1cc(C(N)=NOCC=Cc2ccc3c(ccn3C)c2)c(Oc2cccc(C(F)(F)F)c2)nn1 [30-01, 6-methyl-N′-[3-(1-methylindol-5-yl)allyloxy]-3-[3-(trifluoromethyl)phenoxy]pyridazine-4-carboxamidine]
3.92: chromatographic logP [1]

COC(=N)c1cc(Cl)nnc1Oc1cccc(C(F)(F)F)c1 [25-02, methyl 6-chloro-3-[3-(trifluoromethyl)phenoxy]pyridazine-4-carboximidate]
3: chromatographic logP [1]

COC(=N)c1cc(Cl)nnc1Oc1cccc(C2CC2)c1 [25-01, methyl 6-chloro-3-(3-cyclopropylphenoxy)pyridazine-4-carboximidate]
3.08: chromatographic logP [1]

Cc1ccc(CC2CON=C(c3cc(Cl)nnc3Oc3cccc(C(F)(F)F)c3)N2)c(C)c1 (racemic) [I-059, rac-3-[6-chloro-3-[3-(trifluoromethyl)phenoxy]pyridazin-4-yl]-5-[(2,4-dimethylphenyl)methyl]-5,6-dihydro-4H-1,2,4-oxadiazine]
90 to 100%: inhibition at 20 ppm [2] | pest or weed control at 500 ppm [3] | pest or weed control at 500 ppm [4] | pest or weed control at 500 ppm [5] | pest or weed control at 500 ppm [6] | inhibition at 20 ppm [7] | inhibition at 20 ppm [8] | pest or weed control at 500 ppm [9] | pest or weed control at 500 ppm [10]
